Counter-ions that a name gives are not always drawn.

Type in all cases: functional, cell-based
One assay concerns PC-3. In words: Cytotoxicity against human PC-3 cells assessed as reduction in cell viability incubated for 72 hrs by SRB assay. Conditions: PC-3, 72 h. In general terms: In SRB staining, fixed cells bind dye roughly in proportion to their protein.
The test system of another assay is HCT-116. In words: Cytotoxicity against human HCT-116 cells assessed as reduction in cell viability incubated for 72 hrs by SRB assay. To be noted: HCT-116, 72 h.
The test system of the next assay is MDA-MB-231. The experiment in a line: Cytotoxicity against human MDA-MB-231 cells assessed as reduction in cell viability incubated for 72 hrs by SRB assay. To be noted: MDA-MB-231, 72 h.
The test system of a further assay is BV-2. In words: Antiinflammatory activity in mouse BV-2 cells assessed as inhibition of LPS-induced NO production pretreated for 3 hrs followed by LPS stimulation measured after 24 hrs by microplate reader assay. To be noted: dose 2.5-10 µM, time 27.0 hrs, DDE = dose-dependent effect.

Broadly, the IC50 is the point on the concentration scale where inhibition reaches its midpoint. For `CCc1c(O)c(C)c(O[C@@H]2O[C@H](CO)[C@@H](O)[C@H](O)[C@H]2O)c(C(=O)SC)c1C(C)C`, the IC50 in the assay with PC-3, in the assay with HCT-116 and in the assay with MDA-MB-231 was over 40 µM throughout.
As to `CSC(=O)c1c(C)c(C)c(O)c(C)c1O[C@@H]1O[C@H](CO)[C@@H](O)[C@H](O)[C@H]1O`, the 50% inhibitory concentration (IC50) in the assay on PC-3, in the assay on HCT-116 and in the assay on MDA-MB-231 was over 40 µM in each case.
Take `COc1cccc2c1C(=O)c1c(O)c3c(c(O)c1C2=O)C[C@@](O)(C(=O)CO)C[C@@H]3O[C@H]1C[C@H](N)[C@H](O)[C@H](C)O1` [DOXORUBICIN HYDROCHLORIDE]: the half-maximal inhibitory concentration (IC50) in the assay with PC-3 and in the assay with MDA-MB-231 was 0.4 µM each time.
Take `CSC(=O)c1c(C(C)C)cc(O)c(C)c1O[C@@H]1O[C@H](CO)[C@@H](O)[C@H](O)[C@H]1O`: the IC50 with PC-3, in the assay on HCT-116 and with MDA-MB-231 was over 40 µM throughout.
Consider `Cc1c(O)cc(C(C)C)c(C)c1O`, for which the IC50 in the assay with PC-3, with HCT-116 and in the assay on MDA-MB-231 was over 40 µM throughout.
With `CCc1c(C)c(O)c(C)c(O[C@@H]2O[C@H](CO)[C@@H](O)[C@H](O)[C@H]2O)c1C(=O)SC`, the 50% inhibitory concentration (IC50) in the assay with PC-3, in the assay on HCT-116 and in the assay with MDA-MB-231 was over 40 µM in each case. Moreover, the Activity entry with BV-2 was “Dde”.
In the case of `COC(=O)c1c(O)c(C)c(O)c(C)c1C(C)C`, the IC50 in the assay with PC-3 was over 40 µM; in the assay with HCT-116 it was 7.3 µM; with MDA-MB-231, over 40 µM.
Consider `CSC(=O)c1c(O)c(C)c(O)c(C)c1C(C)C`, for which the IC50 in the assay on HCT-116 is 3.9 µM; in the assay with MDA-MB-231, over 40 µM. Also, the Activity result with BV-2 was “Dde”.
For `CCc1c(C)c(O)c(C)c(O[C@@H]2O[C@H](COC(C)=O)[C@@H](O)[C@H](O)[C@H]2O)c1C(=O)SC`, the figures for the IC50 in the assay on HCT-116 and in the assay on MDA-MB-231 were over 40 µM and 16 µM, respectively.
The corresponding values for `CSC(=O)c1c(O[C@@H]2O[C@H](CO)[C@@H](O)[C@H](O)[C@H]2O)c(C)c(OC(=O)c2c(O)c(C)c(O)c(C)c2C(C)C)c(C)c1C(C)C` are over 40 µM and 11 µM.
Turning to `CSC(=O)c1c(O[C@@H]2O[C@H](COC(C)=O)[C@@H](O)[C@H](O)[C@H]2O)c(C)c(O)c(C)c1C(C)C`, the IC50 in the assay with HCT-116 and in the assay with MDA-MB-231 was over 40 µM throughout.
For the compound `CCc1c(C)c(O)c(C)c(O)c1C(=O)SC`, the IC50 in the assay on PC-3, in the assay with HCT-116 and in the assay on MDA-MB-231 was over 40 µM each time.
`Cc1c(O)c(C)c(C(C)C)c(O[C@@H]2O[C@H](CO)[C@@H](O)[C@H](O)[C@H]2O)c1O`: the IC50 with PC-3 was 4.1 µM; in the assay on HCT-116, over 40 µM; with MDA-MB-231 it was over 40 µM. Further, in the assay with BV-2, the Activity result is “Dde”.
Regarding `COc1c(C)c(O)c(C)c(C(C)C)c1C(=O)SC`, the IC50 in the assay on PC-3 was over 40 µM; with HCT-116, over 40 µM; in the assay on MDA-MB-231 it was 36 µM. Also, in the assay on BV-2, the Activity result was “Dde”.
Take `CSC(=O)c1c(O[C@@H]2O[C@H](CO)[C@@H](O)[C@H](O)[C@H]2O)c(C)c(O)c(C)c1C(C)C`: the IC50 in the assay with PC-3, in the assay with HCT-116 and in the assay on MDA-MB-231 was over 40 µM in each case. Further, the Activity entry in the assay with BV-2 was “Dde”.
